Usually refractive index stands for a measure of how strongly the sample bends light. A word on the mass density: it is the mass of a sample divided by its volume.

Structures are written as SMILES. Numbers after ± are expanded uncertainties.

We go through two compounds from the NIST ThermoML archive (doi:10.1016/j.fluid.2006.07.016).

A short description of data set [1]: refractive index (Na D-line) (dimensionless). As to conditions: 298.2 K; 101.33 kPa; Liquid; Standard Abbe refractometry.
The conditions of data set [2]: 298.2 K; 101.33 kPa; Liquid.

For the compound `CCCO` [propan-1-ol], the refractive index in data set [1] was determined as 1.3839 ± 0.0007. Moreover, the mass density in data set [2] amounted to 799.7 ± 0.5 kg/m3.
In the case of `CCCOC(C)=O` [propyl ethanoate], in data set [1], the refractive index worked out at 1.3828 ± 0.0007. Besides, the mass density in data set [2] turned out to be 882.5 ± 0.4 kg/m3.
